{
  "source": "paper PMC2981508",
  "about": "(Science (New York, N.Y.), 2009)",
  "key": {"progesterone receptor": {"target": "T1, progesterone receptor (Homo sapiens, UniProt P06401)", "T1 sequence (P06401 1-933)": "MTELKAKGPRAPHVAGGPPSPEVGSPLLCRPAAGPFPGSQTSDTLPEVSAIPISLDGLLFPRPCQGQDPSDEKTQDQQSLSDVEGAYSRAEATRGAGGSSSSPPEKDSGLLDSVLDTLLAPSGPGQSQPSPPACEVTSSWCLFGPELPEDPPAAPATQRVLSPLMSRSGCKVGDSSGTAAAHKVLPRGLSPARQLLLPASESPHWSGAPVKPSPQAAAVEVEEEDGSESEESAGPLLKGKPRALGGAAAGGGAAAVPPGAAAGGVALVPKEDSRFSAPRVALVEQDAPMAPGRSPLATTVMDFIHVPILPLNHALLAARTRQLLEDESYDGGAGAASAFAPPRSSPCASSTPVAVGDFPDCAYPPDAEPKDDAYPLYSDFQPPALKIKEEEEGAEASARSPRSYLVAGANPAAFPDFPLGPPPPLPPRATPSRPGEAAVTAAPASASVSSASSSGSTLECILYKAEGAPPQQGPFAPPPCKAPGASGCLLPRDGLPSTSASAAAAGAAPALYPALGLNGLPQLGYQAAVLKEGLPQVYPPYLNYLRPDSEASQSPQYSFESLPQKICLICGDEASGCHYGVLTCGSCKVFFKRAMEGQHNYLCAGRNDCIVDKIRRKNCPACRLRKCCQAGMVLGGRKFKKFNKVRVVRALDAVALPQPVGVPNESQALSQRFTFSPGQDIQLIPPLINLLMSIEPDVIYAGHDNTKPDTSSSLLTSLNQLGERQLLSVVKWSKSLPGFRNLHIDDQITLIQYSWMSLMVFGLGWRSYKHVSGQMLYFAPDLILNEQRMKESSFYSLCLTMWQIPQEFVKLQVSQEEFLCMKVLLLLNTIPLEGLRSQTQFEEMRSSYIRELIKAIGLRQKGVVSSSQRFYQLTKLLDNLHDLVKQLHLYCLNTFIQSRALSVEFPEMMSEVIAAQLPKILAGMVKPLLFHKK", "test": "in vitro fluorescence polarization binding assay"}, "[1]": {"system": "AR target genes PSA and TMPRSS2 in LNCaP/AR cells", "test": "qRT-PCR of AR-dependent genes in LNCaP/AR cells", "format": "cell-based, human", "conditions": "androgen-depleted media 5% CSS, 8 hours, 1 and 10 μM"}, "VCaP cells": {"system": "VCaP cells", "test": "VCaP cell proliferation", "format": "cell-based, human", "conditions": "1 and 10 μM, media containing FBS"}, "AR [2]": {"system": "AR", "format": "cell-based", "conditions": "in vitro"}, "VP16-AR fusion protein": {"system": "VP16-AR fusion protein", "format": "cell-based", "conditions": "Cos-7 cells, 24 hours"}, "AR [3]": {"target": "T2, AR (Homo sapiens, UniProt P10275)", "T2 sequence (P10275 1-920)": "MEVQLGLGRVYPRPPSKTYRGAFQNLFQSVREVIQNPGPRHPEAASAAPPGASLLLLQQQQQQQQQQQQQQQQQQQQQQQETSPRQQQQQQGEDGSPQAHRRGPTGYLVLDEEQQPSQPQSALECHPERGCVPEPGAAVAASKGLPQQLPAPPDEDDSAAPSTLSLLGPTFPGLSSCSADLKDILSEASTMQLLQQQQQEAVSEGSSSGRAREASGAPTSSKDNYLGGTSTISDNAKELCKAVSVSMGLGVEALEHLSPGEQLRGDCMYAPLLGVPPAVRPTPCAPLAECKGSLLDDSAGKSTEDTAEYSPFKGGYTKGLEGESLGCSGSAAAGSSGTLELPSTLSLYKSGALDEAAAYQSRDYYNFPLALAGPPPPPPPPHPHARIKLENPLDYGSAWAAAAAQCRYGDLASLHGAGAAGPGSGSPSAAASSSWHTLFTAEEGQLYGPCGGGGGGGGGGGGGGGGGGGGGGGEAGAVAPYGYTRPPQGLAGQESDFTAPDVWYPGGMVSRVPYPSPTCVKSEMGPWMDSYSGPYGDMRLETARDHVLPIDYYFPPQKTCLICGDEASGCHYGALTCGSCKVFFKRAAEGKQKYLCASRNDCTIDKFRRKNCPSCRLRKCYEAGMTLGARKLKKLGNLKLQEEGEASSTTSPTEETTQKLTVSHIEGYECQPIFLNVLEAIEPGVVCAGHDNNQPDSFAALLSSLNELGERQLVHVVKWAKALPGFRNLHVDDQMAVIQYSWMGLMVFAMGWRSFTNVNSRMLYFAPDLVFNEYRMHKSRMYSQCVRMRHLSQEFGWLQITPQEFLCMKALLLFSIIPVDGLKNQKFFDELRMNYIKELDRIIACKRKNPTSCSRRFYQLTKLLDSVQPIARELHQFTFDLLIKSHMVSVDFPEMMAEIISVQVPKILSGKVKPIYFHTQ", "test": "in vitro studies of AR activity", "format": "cell-based"}, "[4]": {"test": "Pharmacokinetics of RD162 in mice"}},
  "data": [
    {"smiles": "CNC(=O)c1ccc(N2C(=S)N(c3ccc(C#N)c(C(F)(F)F)c3)C(=O)C23CCC3)cc1F", "note": "[RD162]", "values": [
      {"measurement": "binding to progesterone receptor", "setting": "progesterone receptor", "result": "little to no binding"},
      {"measurement": "Expression of AR target genes PSA and TMPRSS2 (agonist activity)", "setting": "[1]", "result": "do not have agonist activity"},
      {"measurement": "Growth of VCaP cells", "setting": "VCaP cells", "result": "suppressed growth"},
      {"measurement": "effects on AR protein expression", "setting": "AR [2]", "result": "no obvious changes"},
      {"measurement": "Activation of VP16-AR", "setting": "VP16-AR fusion protein", "result": "neither RD162 nor MDV3100 activated VP16-AR"},
      {"measurement": "concentrations expected to block AR activity based on the in vitro studies", "setting": "AR [3]", "result": "1 to 10", "unit": "µM"},
      {"measurement": "bioavailable after oral delivery", "setting": "[4]", "result": "~50", "unit": "%"},
      {"measurement": "serum half-life", "setting": "[4]", "result": "about 30 hours"},
      {"measurement": "Trough levels", "setting": "[4]; 24 hours after a single 20 mg/kg oral dose", "result": "~23", "unit": "µM"}
    ]}
  ]
}
